# Assay results published in patent US5424286A (priority 1993, dated 1995).
# Legend:
# [1] = tested on: insulin secretion; experiment: Alternating bolus injections of GLP-1 and exendin-4 via left atrial catheter in anesthetized dogs; conditions: after normalization of hyperglycemia and in euglycemic state
# [2] = cited from earlier work
Compound,hypoglycemia [1],"meal-related increases in blood glucose concentration and plasma insulin and glucagon ([2]; normal subjects, infusion)",lowering of the insulin required ([2]; patients with IDDM),reduction of the requirement for insulin ([2]; patients with NIDDM) [fold]
"CC[C@H](C)[C@H](NC(=O)[C@H](Cc1ccccc1)NC(=O)[C@H](CCC(=O)O)NC(=O)[C@H](CCCCN)NC(=O)[C@H](C)NC(=O)[C@H](C)NC(=O)[C@H](CCC(N)=O)NC(=O)CNC(=O)[C@H](CCC(=O)O)NC(=O)[C@H](CC(C)C)NC(=O)[C@H](Cc1ccc(O)cc1)NC(=O)[C@H](CO)NC(=O)[C@H](CO)NC(=O)[C@@H](NC(=O)[C@H](CC(=O)O)NC(=O)[C@H](CO)NC(=O)[C@@H](NC(=O)[C@H](Cc1ccccc1)NC(=O)[C@@H](NC(=O)CNC(=O)[C@H](CCC(=O)O)NC(=O)[C@H](C)NC(=O)[C@@H](N)Cc1c[nH]cn1)[C@@H](C)O)[C@@H](C)O)C(C)C)C(=O)N[C@@H](C)C(=O)N[C@@H](Cc1c[nH]c2ccccc12)C(=O)N[C@@H](CC(C)C)C(=O)N[C@H](C(=O)N[C@@H](CCCCN)C(=O)NCC(=O)N[C@@H](CCCNC(=N)N)C(N)=O)C(C)C [GLP-1, glucagon-like peptide-1]",hypoglycemia does not occur,,,
glucagon-like insulinotropic peptide [GLIP],,significantly lowered,one half,8
